Reference: patent US20180228780A1, “3-(1H-PYRROLO[2,3-C]PYRIDIN-2-YL)-1H-INDAZOLES AND THERAPEUTIC USES THEREOF” (Samumed, LLC, priority 2015, published 2018)

Legend:
Format in all cases: cell-based
[1] = tested on: Wnt activity (Sp5-Luc reporter, SW480 colon carcinoma cells); assay: Screening assay for Wnt activity: Sp5-Luc reporter gene assay in SW480 cells; settings: Homo sapiens; for inhibition at 10 µM: SW480, read-out: percent inhibition at 10 μM; for EC50: SW480 Sp5-Luc reporter, overnight incubation
From the text: The screening assay for Wnt activity is described as follows. Reporter cell lines can be generated by stably transducing cancer cell lines (e.g., colon cancer) or primary cells (e.g., IEC-6 intestinal cells) with a lentiviral construct that includes a Wnt-responsive promoter driving expression of the firefly luciferase gene.
SW480 colon carcinoma cells were transduced with a lentiviral vector expressing luciferase with a human Sp5 promoter consisting of a sequence of eight TCF/LEF binding sites. SW480 cells stably expressing the Sp5-Luc reporter gene and a hygromycin resistance gene were selected by treatment with 150 μg/mL of hygromycin for 7 days. These stably transduced SW480 cells were expanded in cell culture and used for all further screening activities. […] For Sp5-Luc reporter gene assays, the cells were plated at 4,000 cells/well in 384-well plates with medium containing 1% fetal bovine serum and incubated overnight at 37° C. and 5% CO2. Following incubation, 20 μl of BrightGlo luminescence reagent (Promega) was added to each well of the 384-well assay plates. The plates were placed on an orbital shaker for 2 min and then luminescence was quantified using the Envision (Perkin Elmer) plate reader. Readings were normalized to DMSO only treated cells, and normalized activities were utilized for EC50 calculations using the dose-response log (inhibitor) vs. response-variable slope (four parameters) nonlinear regression feature available in GraphPad Prism 5.0 (or Dotmatics).

IL-6 (THP-1 cells) = assay: IL-6 inhibition in THP-1 monocytes (HTRF); settings: Homo sapiens; for inhibition at 10 µM: THP-1, read-out: percentage in parentheses printed under EC50 >10; for EC50: IL-6 inhibition, THP-1 cells, HTRF, 10-point dose-response starting from 10 μM
Method: Compound Screening: THP-1 cells were cultured in basal media with 1% FBS for 24 hours before the start of the assay. […] THP-1 cells were plated at 5000 cells/well in the 384-well plates and incubated at 37° C. for 2 h. 500 ng/mL of […] was added after 2 hours and cells were incubated for another 22 hours at 37° C. Plates were spun in a centrifuge for 1 minute at 10,000 rpm and a mixture of anti-IL6 XL665, and anti-IL6 Cryptate diluted in reconstitution buffer (Cisbio Inc.) was added to each well. Following incubation for 3 hrs at room temperature, Homogeneous Time-Resolved Fluorescence (HTRF) was measured using the Envision (Perkin Elmer) at 665 nm and […]. The ratio of fluorescence at 665 nm to 620 nm was used as a readout for IL6 quantification. All samples were processed in duplicate. Readings were normalized to DMSO treated cells and normalized activities were utilized for EC50 calculations using the dose-response log (inhibitor) vs. response-variable slope (four parameters) nonlinear regression feature available in GraphPad Prism 5.0 (or Dotmatics).

SW480 colon cancer cells = assay: Cell viability assay (CellTiter-Blue) in SW480 colon cancer cells; settings: Homo sapiens; for EC50: 96 h, SW480 cell viability, four days incubation; for inhibition at 10 µM: SW480, read-out: percent inhibition at 10 μM
Method: Representative compounds were screened using the following assay procedure to assess the effect on cell viability as described below.
Approximately 2×10^3 SW480 colon cancer cells were seeded into each well and allowed to incubate in the presence or absence of compound for four days at 37° C./5% CO2. Eight replicates of DMSO-treated cells served as controls and cells treated with compound were performed in duplicate.
After incubation, 20 μL of CellTiter-Blue (Promega) was added to each well allowed to incubate for approximately 3 hours. This reagent was a buffered solution which contains resazurin, metabolically active cells were able to reduce rezarurin (blue) into resorufin (pink) which was highly fluorescent. This measured fluorescence was used as a readout for cell viability.

[2] = tested on: Primary human fibroblasts derived from IPF patients (LL29 cells); assay: Inhibition of the fibrotic process: αSMA staining in TGF-β1-treated LL29 fibroblasts; settings: Fibroblast; for EC50: 96 h, LL29 cells, TGF-β1 20 ng/mL, 4 days, % αSMA-positive cells; for inhibition at 10 µM: read-out: percent inhibition at 10 μM
From the text: Representative compounds were screened using primary human fibroblasts (derived from IFF patients) treated with TGF-β1 to determine their ability to inhibit the fibrotic process.
K. L., et.al., “RhoA signaling modulates cyclin D1 expression in human lung fibroblasts; implications for idiopathic pulmonary fibrosis”, Respiratory Research (2006), 7(1), 88] were obtained from American Type Culture Collection (ATCC) and expanded in F12 medium supplemented with 15% Fetal Bovine Serum and Penicillin/Streptomycin.
LL29 cells are plated at 1,500 cells/well in 80 μL/well F12 medium supplemented with 1% Fetal Bovine Serum. […] Wells treated with TGF-β1 and containing DMSO were used as controls. […] Following incubation for 4 days, SYTOX green nucleic acid stain (Life Technologies [Thermo Fisher Scientific]) was added to the wells at a final concentration of 1 μM and incubated at room temperature for 30 min.

[3] = tested on: primary human mesenchymal stem cells (hMSCs); assay: Induction of chondrogenesis in hMSCs (nodule imaging, Rhodamine B / Nile Red); settings: 6 days; for EC50: concentration required to induce 50% levels of chondrogenesis vs TGF-β3, read-out: Conc (nM) of 50% TGF-β3 activity; for Emax: relative to TGF-β3 (10 ng/mL) positive control, read-out: Max. Activity as % TGF-β3 activity
From the text: Representative compounds were screened using primary human mesenchymal stem cells (hMSCs) to determine their ability to induce chondrogenesis (process by which cartilage is developed).
Primary human mesenchymal stem cells (hMSCs) were purchased from Lonza (Walkersville, Md.) and expanded in Mesenchymal Stem Cell Growth Media (Lonza). Cells between passage 3 and 6 were used for the experiments.
Area of nodules in each well was normalized to the average of 3 DMSO treated wells on the same plate using Excel (Microsoft Inc.). The normalized averages (fold change over DMSO) of 2 or 3 replicate wells for each compound concentration were calculated. Due to solubility limitations of some of the compounds, curve fitting was incomplete leading to inaccurate EC50 determinations.
Using TGF-β3 as a positive control, the concentration of representative compounds required to induce 50% levels of chondrogenesis is reported. In addition, the maximum activity of each compound and the respective dose that each compound reached maximum chondrogenesis activity is reported.

| EC50 [1] | EC50 (IL-6 (THP-1 cells)) | EC50 (SW480 colon cancer cells) | EC50 [3] | Structure (SMILES) | inhibition at 10 µM [1] | inhibition at 10 µM (IL-6 (THP-1 cells)) | inhibition at 10 µM (SW480 colon cancer cells) | EC50 [2] | Emax [3] | inhibition at 10 µM [2] |
| --- | --- | --- | --- | --- | --- | --- | --- | --- | --- | --- |
| > 10000 nM | > 10000 nM | > 10000 nM | 100 nM | CN1CCN(c2cncc3[nH]c(-c4n[nH]c5ccc(-c6cncc(NC(=O)CC7CCNCC7)c6)cc45)cc23)CC1 [Compound 641, N-(5-(3-(4-(4-Methylpiperazin-1-yl)-1H-pyrrolo[2,3-c]pyridin-2-yl)-1H-indazol-5-yl)pyridin-3-yl)-2-(piperidin-4-yl)acetamide] | 6.7% | 43.7% | 11.9% | 6440 nM | 289% |  |
| 2200 nM | 8270 nM | 1100 nM | 10 nM | COc1cncc(-c2ccc3[nH]nc(-c4cc5c(-c6ccoc6)cncc5[nH]4)c3c2)c1 [Compound 692, 3-(4-(Furan-3-yl)-1H-pyrrolo[2,3-c]pyridin-2-yl)-5-(5-methoxypyridin-3-yl)-1H-indazole] |  |  |  | 728 nM | 170% |  |
| 578 nM | 57 nM | 835 nM | 10 nM | c1ccc(CNCc2cncc(-c3ccc4[nH]nc(-c5cc6c(-c7cccs7)cncc6[nH]5)c4c3)c2)cc1 [Compound 360] |  |  |  | 187 nM | 57% |  |
| 250 nM | > 10000 nM | 506 nM | 30 nM | Cn1cc(-c2ccc3[nH]nc(-c4cc5c(-c6cccnc6)cncc5[nH]4)c3c2)cn1 [Compound 556, 5-(1-Methyl-1H-pyrazol-4-yl)-3-(4-(pyridin-3-yl)-1H-pyrrolo[2,3-c]pyridin-2-yl)-1H-indazole] |  | 44.3% |  | > 10000 nM | 65% | 0% |
| 244 nM | 56 nM | 901 nM |  | CCC(=O)Nc1cncc(-c2ccc3[nH]nc(-c4cc5c(-c6cc(F)cc(CNS(C)(=O)=O)c6)cncc5[nH]4)c3c2)c1 [Compound 477, N-(5-(3-(4-(3-Fluoro-5-(methylsulfonamidomethyl)phenyl)-1H-pyrrolo[2,3-c]pyridin-2-yl)-1H-indazol-5-yl)pyridin-3-yl)propionamide] |  |  |  | 1640 nM | 29% |  |
| 956 nM | 2580 nM | 510 nM |  | COc1cncc(-c2ccc3[nH]nc(-c4cc5c(-c6ccsc6)cncc5[nH]4)c3c2)c1 [Compound 676, 5-(5-Methoxypyridin-3-yl)-3-(4-(thiophen-3-yl)-1H-pyrrolo[2,3-c]pyridin-2-yl)-1H-indazole] |  |  |  | 434 nM | 40% |  |

The next lines start with the compound.

| Structure (SMILES) | EC50 [1] | EC50 (IL-6 (THP-1 cells)) | EC50 (SW480 colon cancer cells) | EC50 [3] | inhibition at 10 µM [1] | inhibition at 10 µM (IL-6 (THP-1 cells)) | inhibition at 10 µM (SW480 colon cancer cells) | EC50 [2] | Emax [3] | inhibition at 10 µM [2] |
| --- | --- | --- | --- | --- | --- | --- | --- | --- | --- | --- |
| CCCCC(=O)Nc1cncc(-c2ccc3[nH]nc(-c4cc5c(-c6ccoc6)cncc5[nH]4)c3c2)c1 [Compound 327] | 915 nM | 689 nM | 298 nM | 30 nM |  |  |  | 1340 nM | 122% |  |
| FC1(F)CCN(Cc2cncc(-c3ccc4[nH]nc(-c5cc6c(-c7cccnc7)cncc6[nH]5)c4c3)c2)C1 [Compound 110, 5-(5-((3,3-Difluoropyrrolidin-1-yl)methyl)pyridin-3-yl)-3-(4-(pyridin-3-yl)-1H-pyrrolo[2,3-c]pyridin-2-yl)-1H-indazole] | 526 nM | 353 nM | 1280 nM | 900 nM |  |  |  | 337 nM | 256% |  |
| CC(C)CC(=O)Nc1cncc(-c2ccc3[nH]nc(-c4cc5c(-c6ccncc6)cncc5[nH]4)c3c2)c1 [Compound 114] | 875 nM | > 10000 nM | > 10000 nM | 30 nM |  | 15.9% | 24.8% | > 10000 nM | 70% | 47% |
| CN1CCN(c2cncc3[nH]c(-c4n[nH]c5ccc(-c6cncc(CNCc7ccccc7)c6)cc45)cc23)CC1 [Compound 248] | 3340 nM | 3590 nM | 3630 nM | 30 nM |  |  |  | 1160 nM | 101% |  |
| O=C(Nc1cncc(-c2ccc3[nH]nc(-c4cc5c(-c6cccnc6)cncc5[nH]4)c3c2)c1)c1ccccc1 [Compound 95] | > 10000 nM | 1710 nM | > 10000 nM | 10 nM | 32.4% |  | 22.7% | > 10000 nM | 69% | 34.2% |
| c1cncc(-c2cncc3[nH]c(-c4n[nH]c5ccc(-c6cncc(CN7CCCCC7)c6)cc45)cc23)c1 [Compound 99, 5-(5-(Piperidin-1-ylmethyl)pyridin-3-yl)-3-(4-(pyridin-3-yl)-1H-pyrrolo[2,3-c]pyridin-2-yl)-1H-indazole] | > 10000 nM | 5700 nM | 3370 nM |  | 31.2% |  |  | 4040 nM | 40% |  |
| O=C(Nc1cncc(-c2ccc3[nH]nc(-c4cc5c(-c6ccncc6)cncc5[nH]4)c3c2)c1)C1CC1 [Compound 132, N-(5-(3-(4-(Pyridin-4-yl)-1H-pyrrolo[2,3-c]pyridin-2-yl)-1H-indazol-5-yl)pyridin-3-yl)cyclopropanecarboxamide] | 395 nM | 765 nM | > 10000 nM |  |  |  | 20.6% | > 10000 nM | 37% | 35.6% |
| O=C(Nc1cncc(-c2ccc3[nH]nc(-c4cc5c(-c6cccnc6)cncc5[nH]4)c3c2)c1)C1CCCC1 [Compound 106, N-(5-(3-(4-(Pyridin-3-yl)-1H-pyrrolo[2,3-c]pyridin-2-yl)-1H-indazol-5-yl)pyridin-3-yl)cyclopentanecarboxamide] | 1400 nM | 209 nM | 2030 nM |  |  |  |  | 2320 nM | 45% |  |
| CN(C)Cc1cncc(-c2ccc3[nH]nc(-c4cc5c(-c6cccc(F)c6)cncc5[nH]4)c3c2)c1 [Compound 13, 1-(5-(3-(4-(3-Fluorophenyl)-1H-pyrrolo[2,3-c]pyridin-2-yl)-1H-indazol-5-yl)pyridin-3-yl)-N,N-dimethylmethanamine] | 1280 nM | 75 nM | 420 nM | 10 nM |  |  |  | 952 nM | 193% |  |
